According to ChEMBL document CHEMBL4354802, “Peptide derivatives as inhibitors of NS2B-NS3 protease from Dengue, West Nile, and Zika flaviviruses” (Bioorg Med Chem, 2019):
pIC50, pKi: −log10 of the molar value. Non-standard residues stand in square brackets, D forms with d. Residues, ends and D or L forms follow the SMILES beside them. ξ: configuration not given here. *: point of attachment. Trp(5-NO2) = N[C@@H](Cc1c[nH]c2ccc([N+](=O)[O-])cc12)C(=O)O; Gly(2-naphthyl) = N[C@H](C(=O)O)c1ccc2ccccc2c1; ξR = N=C(N)NCCCC(N)C(=O)O; 2Abz = Nc1ccccc1C(=O)O; PhAc = O=C(Cc1ccccc1)*

How the values were obtained:
thrombin (prothrombin) = thrombin (prothrombin) (Homo sapiens, UniProt P00734); experiment: Inhibition of human thrombin at 25 uM preincubated for 15 mins followed by Boc-Val-Pro-Arg-AMC addition and measured for 10 mins by continuous fluorimetric assay relative to control; conditions: human thrombin enzyme, probe Boc-Val-Pro-Arg-AMC
Genome polyprotein [1] = molecular target: T1, Genome polyprotein (West Nile virus, UniProt P06935); experiment: Inhibition of West Nile virus NS2B-NS3 protease preincubated for 1 hr followed by Pyr-RTKR-AMC addition and measured after 30 mins by fluorescence method
T1 sequence (P06935 1371-1501 limits assumed): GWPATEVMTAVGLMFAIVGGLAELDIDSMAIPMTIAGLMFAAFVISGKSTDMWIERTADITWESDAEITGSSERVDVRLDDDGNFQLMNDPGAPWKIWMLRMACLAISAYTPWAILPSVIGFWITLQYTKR
T1 sequence (P06935 1502-2120 limits assumed): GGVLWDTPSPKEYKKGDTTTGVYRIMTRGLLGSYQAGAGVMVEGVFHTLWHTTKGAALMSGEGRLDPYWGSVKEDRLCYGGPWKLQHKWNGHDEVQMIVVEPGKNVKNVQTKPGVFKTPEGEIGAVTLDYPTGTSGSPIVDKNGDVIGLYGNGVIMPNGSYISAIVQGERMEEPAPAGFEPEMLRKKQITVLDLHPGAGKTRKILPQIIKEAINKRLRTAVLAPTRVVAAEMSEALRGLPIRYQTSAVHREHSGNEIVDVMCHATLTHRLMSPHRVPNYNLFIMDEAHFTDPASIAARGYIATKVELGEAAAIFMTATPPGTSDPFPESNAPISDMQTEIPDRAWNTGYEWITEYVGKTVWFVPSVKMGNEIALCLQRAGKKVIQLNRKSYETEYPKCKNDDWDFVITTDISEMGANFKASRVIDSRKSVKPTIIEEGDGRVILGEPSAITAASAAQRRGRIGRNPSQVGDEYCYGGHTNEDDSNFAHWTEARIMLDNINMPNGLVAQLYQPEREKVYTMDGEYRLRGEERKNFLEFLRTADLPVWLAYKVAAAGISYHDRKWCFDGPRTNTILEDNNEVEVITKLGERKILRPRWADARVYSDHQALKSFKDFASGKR

Nonstructural protein 3 [2] = molecular target: T2, Nonstructural protein 3 (Zika virus, UniProt A0A024AXB9); experiment: Inhibition of Zika virus unlinked NS2B-NS3 protease preincubated for 5 mins followed by benzoyl-nKRR-AMC addition and measured every 60 secs for 12 mins by fluorescence method
T2 sequence (A0A024AXB9 whole entry): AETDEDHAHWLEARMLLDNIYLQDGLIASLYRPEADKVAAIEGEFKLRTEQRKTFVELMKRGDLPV

Genome polyprotein [3] = molecular target: T1, Genome polyprotein; experiment: Inhibition of West Nile virus NS2B (47 residues)-NS3 (184 residues) protease expressed in Escherichia coli BL21 (DE3) preincubated for 15 mins followed by Benzoyl-Nle-KRR-AMC addition and measured after 30 mins by fluorescence method
Genome polyprotein [4] = experiment: Inhibition of Dengue virus serotype 1 NS2B-NS3 protease preincubated for 20 mins followed by Abz-RRRRSAG-nY-NH2 addition and measured for 60 mins by fluorescence method; design: species or system dengue virus type 1
Target sequence in this assay (P29990 1346-1475 limits assumed): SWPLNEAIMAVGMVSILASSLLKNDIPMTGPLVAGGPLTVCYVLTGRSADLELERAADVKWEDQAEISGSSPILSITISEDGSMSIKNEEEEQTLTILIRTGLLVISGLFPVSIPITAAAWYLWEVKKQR
Target sequence in this assay (P29990 1476-2093 limits assumed): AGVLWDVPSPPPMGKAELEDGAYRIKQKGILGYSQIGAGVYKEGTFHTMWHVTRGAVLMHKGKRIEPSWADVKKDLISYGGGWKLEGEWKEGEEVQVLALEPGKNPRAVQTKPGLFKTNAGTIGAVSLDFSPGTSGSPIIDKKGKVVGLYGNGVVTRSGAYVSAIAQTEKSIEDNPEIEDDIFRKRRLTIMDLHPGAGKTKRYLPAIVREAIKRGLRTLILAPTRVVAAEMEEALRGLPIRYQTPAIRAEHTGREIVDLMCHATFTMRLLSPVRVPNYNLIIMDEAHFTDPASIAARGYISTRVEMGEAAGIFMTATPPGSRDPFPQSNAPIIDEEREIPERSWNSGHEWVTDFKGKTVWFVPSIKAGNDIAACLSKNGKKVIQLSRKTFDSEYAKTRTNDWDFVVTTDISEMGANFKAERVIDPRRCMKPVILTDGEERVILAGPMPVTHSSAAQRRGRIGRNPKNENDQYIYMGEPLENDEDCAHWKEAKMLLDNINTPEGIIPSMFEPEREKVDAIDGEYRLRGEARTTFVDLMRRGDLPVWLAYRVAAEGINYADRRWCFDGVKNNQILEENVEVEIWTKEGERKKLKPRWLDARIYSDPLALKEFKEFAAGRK

Genome polyprotein [5] = molecular target: T3, Genome polyprotein (dengue virus type 2, UniProt P29990); experiment: Inhibition of Dengue virus serotype 2 NS2B-NS3 protease preincubated for 20 mins followed by Abz-RRRRSAG-nY-NH2 addition and measured for 60 mins by fluorescence method
T3 sequence (P29990 1346-1475 limits assumed): as the sequence (P29990 1346-1475 limits assumed) above
T3 sequence (P29990 1476-2093 limits assumed): as the sequence (P29990 1476-2093 limits assumed) above

Nonstructural protein 3 [6] = molecular target: T2, Nonstructural protein 3; experiment: Inhibition of N-terminal His6-SUMO tagged Zika virus Puerto Rico NS2B-NS3 unlinked protease expressed in Escherichia coli BL21 Codon Plus (DE3) cells preincubated for 10 mins followed by pyr-TGKR-AMC addition and measured every 5 secs for 2 mins by fluorometric enzyme assay
Nonstructural protein 3 [7] = molecular target: T2, Nonstructural protein 3; experiment: Inhibition of N-terminal His6-SUMO tagged Zika virus Puerto Rico NS2B-NS3 unlinked protease expressed in Escherichia coli BL21 Codon Plus (DE3) cells preincubated for 90 mins followed by pyr-TGKR-AMC addition and measured every 5 secs for 2 mins by fluorometric enzyme assay
Nonstructural protein 3 [8] = molecular target: T2, Nonstructural protein 3; experiment: Inhibition of N-terminal His6-SUMO tagged Zika virus Puerto Rico NS2B-NS3 linked protease expressed in Escherichia coli BL21 Codon Plus (DE3) cells preincubated for 10 mins followed by pyr-TGKR-AMC addition and measured every 5 secs for 2 mins by fluorometric enzyme assay
Genome polyprotein [9] = molecular target: T1, Genome polyprotein; experiment: Inhibition of West Nile virus NS2B-NS3 protease preincubated for 10 mins followed by Np-KKR-pNA addition and measured every 5 secs for 2 mins by fluorescence method
Nonstructural protein 3 [10] = molecular target: T2, Nonstructural protein 3; experiment: Inhibition of Zika virus IbH_30656 NS2B (45 to 96 residues)-NS3 (1 to 177 residues) protease expressed in Escherichia coli BL21/Rosetta (DE3) cells preincubated for 60 mins followed by Bz-nKRR-AMC addition and measured at 60 secs intervals over 10 mins by fluorescence method
Genome polyprotein [11] = molecular target: T3, Genome polyprotein; experiment: Inhibition of Dengue virus serotype 2 NS2B(40 residues)-NS3 (185 residues) protease preincubated for 30 mins followed by ABz-nKRR-AMC addition and measured after 30 mins by fluorescence method
Genome polyprotein [12] = molecular target: T1, Genome polyprotein; experiment: Inhibition of West Nile virus protease

CCCC[C@H](NC(=O)[C@H](CCCCN)NC(=O)[C@H](CCCNC(=N)N)NC(=O)c1ccc(/C=C(\C#N)C(=O)NC2CC2)cc1)C(N)=O
inhibition at 10 min, 25 µM (thrombin (prothrombin)): 13.4%

CC(=O)N[C@@H](CCCCN)C(=O)N[C@@H](CCCCN)C(=O)NCCCCNC(=N)N
pIC50 (Genome polyprotein [1]): 4.73
pKi (Genome polyprotein [1]): 5.31

N=C(N)NCCC[C@H](NC(=O)Cc1ccc(CNC(=N)N)cc1)C(=O)N[C@@H](CCCNC(=N)N)C(=O)N[C@@H](CCCNC(=N)N)C(=O)NCc1ccc(C(=N)N)cc1
pIC50 (Nonstructural protein 3 [2]): 5.96
pKi (Nonstructural protein 3 [2]): 6.37

N=C(N)NCCCC(C=O)NC(=O)[C@H](CCCCN)NC(=O)c1ncc[nH]1 (stereo not given in full)
pKi (Genome polyprotein [3]): 6.92

N=C(N)NCCC[C@H](NC(=O)[C@H](CCCCN)NC(=O)[C@H](CCCCN)NC(=O)Cc1ccccc1)C(=O)NCC(=O)NCC(N)=O (PhAc-KKRGG-NH2)
pIC50 (Nonstructural protein 3 [2]): 5.92
pKi (Nonstructural protein 3 [2]): 6.33

N=C(N)NCCC[C@H](NC(=O)[C@H](CCCNC(=N)N)NC(=O)[C@H](CCCNC(=N)N)NC(=O)[C@@H](N)CCCNC(=N)N)C(=O)N[C@@H](Cc1cnc[nH]1)C(=O)N[C@@H](Cc1c[nH]c2ccccc12)C(=O)N[C@@H](CS)C(=O)N[C@@H](Cc1c[nH]c2ccccc12)C(N)=O (H-RRRRHWCW-NH2)
pKi (Genome polyprotein [4]): 6.40
pKi (Genome polyprotein [5]): 6.52

CC(C)C[C@H](NC(=O)[C@H](Cc1cnc[nH]1)NC(=O)[C@H](CCCNC(=N)N)NC(=O)[C@H](CCCNC(=N)N)NC(=O)[C@H](CCCNC(=N)N)NC(=O)[C@@H](N)CCCNC(=N)N)C(=O)N[C@@H](CS)C(=O)N[C@@H](Cc1c[nH]c2ccccc12)C(N)=O (H-RRRRHLCW-NH2)
pKi (Genome polyprotein [4]): 6.52
pKi (Genome polyprotein [5]): 6.40

N=C(N)NCCC[C@H](NC(=O)c1nccs1)C(=O)N[C@@H](CCCCN)C(=O)N[C@H](C(N)=O)c1ccc(OCc2ccc(C(F)(F)F)cc2)cc1
pIC50 (Nonstructural protein 3 [6]): 5.97
pIC50 (Nonstructural protein 3 [7]): 5.87
pIC50 (Nonstructural protein 3 [8]): 5.98

CC(=O)N[C@@H](CCCNC(=N)N)C(=O)N[C@@H](CCCNC(=N)N)C(=O)N[C@@H](CCCNC(=N)N)C(=O)N[C@@H](CCCNC(=N)N)C(=O)N[C@@H](Cc1cnc[nH]1)C(=O)N[C@@H](Cc1c[nH]c2ccccc12)C(=O)N[C@@H](CS)C(=O)N[C@@H](Cc1c[nH]c2ccccc12)C(N)=O (Ac-RRRRHWCW-NH2)
pKi (Genome polyprotein [4]): 6.40
pKi (Genome polyprotein [5]): 6.52

N=C(N)NCCCC(NC(=O)[C@H](CCCCN)NC(=O)[C@H](CCCCN)NC(=O)[C@@H](NC(=O)[C@H](Cc1c[nH]cn1)NC(=O)CNC(=O)CN)c1ccc2ccccc2c1)C(N)=O (stereo not given in full) (H-GGH[Gly(2-naphthyl)]KK[ξR]-NH2)
pKi (Genome polyprotein [9]): 5.10

[H]/N=C(\N)NCCC[C@@H](C=O)NC(=O)[C@H](CCCCN)NC(C)=O
pIC50 (Nonstructural protein 3 [10]): 6.55

N=C(N)NCCC[C@@H](C=O)NC(=O)[C@H](CCCCN)NC(=O)[C@H](CCCCN)NC(=O)Cc1ccc(-c2ccccc2)cc1
pIC50 (Genome polyprotein [11]): 4.91
pIC50 (Genome polyprotein [12]): 7.25

N=C(N)NCCC[C@H](NC(=O)[C@H](CCCCN)NC(=O)[C@H](CCCCN)NC(=O)Cc1ccc(CNC(=N)N)cc1)C(N)=O
pIC50 (Nonstructural protein 3 [2]): 5.80
pKi (Nonstructural protein 3 [2]): 6.22

CC(C)C[C@H](NC(=O)[C@H](Cc1cnc[nH]1)NC(=O)[C@H](CCCNC(=N)N)NC(=O)[C@H](CCCNC(=N)N)NC(=O)[C@H](CCCNC(=N)N)NC(=O)[C@H](CCCNC(=N)N)NC(=O)c1ccccc1N)C(=O)N[C@@H](CS)C(=O)N[C@@H](Cc1c[nH]c2ccc([N+](=O)[O-])cc12)C(N)=O (H-[2Abz]RRRRHLC[Trp(5-NO2)]-NH2)
pKi (Genome polyprotein [4]): 6.52
pKi (Genome polyprotein [5]): 5.96
